According to article PMC6652260 (Endocrine Connections, 2019):

Experiments:
[1] = biological target: T1, human placental HSD11B2 (Homo sapiens, UniProt P80365); assay: Human placental microsomal HSD11B2 activity assay; type: biochemical
T1 sequence (P80365 1-405): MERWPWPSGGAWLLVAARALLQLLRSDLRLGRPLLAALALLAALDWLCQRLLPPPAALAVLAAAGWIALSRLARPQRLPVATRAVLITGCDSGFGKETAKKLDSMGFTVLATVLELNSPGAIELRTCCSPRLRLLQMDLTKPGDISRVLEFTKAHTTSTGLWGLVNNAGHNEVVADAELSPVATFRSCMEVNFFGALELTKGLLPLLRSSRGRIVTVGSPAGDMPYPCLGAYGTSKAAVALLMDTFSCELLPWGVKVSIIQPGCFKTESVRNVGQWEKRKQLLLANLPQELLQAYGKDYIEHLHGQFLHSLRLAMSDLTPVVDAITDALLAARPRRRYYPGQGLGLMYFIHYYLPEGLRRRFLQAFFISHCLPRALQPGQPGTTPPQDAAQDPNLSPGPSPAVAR

[2] = system: human trophoblast cell lines BeWo and HTR-8; conditions: DES at pM, BeWo and HTR-8 cells; cited from earlier work
[3] = system: cultured trophoblast cells; conditions: cited from earlier work

| Structure (SMILES) | IC50 [1] | Mode of action versus cofactor NAD+ (Lineweaver–Burk), human HSD11B2 ([1]; cofactor NAD+ varied, human placental microsomes) | Mode of action versus steroid substrate (Lineweaver–Burk), human HSD11B2 ([1]; cortisol as the substrate, human placental microsomes) | inhibition at 100 µM ([1]; read-out: Inhibition of human placental HSD11B2 activity) | Effect on human β-chorionic gonadotropin (β-hCG) secretion [2] | Effect on secretion of human chorionic gonadotropin [3] |
| --- | --- | --- | --- | --- | --- | --- |
| CC/C(=C(/CC)c1ccc(O)cc1)c1ccc(O)cc1 [DES, Diethylstilbestrol] | 12.6 µM | uncompetitive inhibitor | competitive inhibitor | > 50% | can inhibit | – |
| CC1(C)[C@@H](OC(=O)CCC(=O)O)CC[C@]2(C)[C@H]3C(=O)C=C4[C@@H]5C[C@@](C)(C(=O)O)CC[C@]5(C)CC[C@@]4(C)[C@]3(C)CC[C@@H]12 [carbenoxolone] | – | – | – | – | – | stimulated secretion |
